The results in this text go back to US10681909B2, “Herbicidal triazoles” (FMC Corporation, priority 2014, dated 2020).

The subject of assay [1] is barnyardgrass. As to the kind of experiment: Test A preemergence. It counts as in vivo, Echinochloa crus-galli. To be noted: Echinochloa crus-galli, pre-emergence, 240 h, 0 to 100 scale (0 no effect, 100 complete control), read-out: Plant response rating, Barnyardgrass; for pest or weed control at 125 g/ha: 125 g ai/ha; for pest or weed control at 500 g/ha: 500 g ai/ha, approx. 10 d. In a few lines: (§1)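 Test chemicals in a non-phytotoxic solvent with surfactant were applied as a directed soil spray preemergence to seeds sown in loam/sand. Postemergence sprays went to plants 2–10 cm tall at the one- to two-leaf stage. A dash means no result.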

For the next assay, the system named is pigweed. As to the kind of experiment: Test A preemergence. It counts as in vivo, Amaranthus retroflexus. The conditions noted are these: Amaranthus retroflexus, pre-emergence, 240 h, 0 to 100 scale (0 no effect, 100 complete control), read-out: Plant response rating, Pigweed; for pest or weed control at 125 g/ha: 125 g ai/ha; for pest or weed control at 500 g/ha: 500 g ai/ha, approx. 10 d. The essentials:
as §1

In a further assay the test system is foxtail, giant. Nature of the assay: Test A postemergence. It counts as in vivo, Setaria faberii. The conditions noted are these: Setaria faberi, post-emergence, 240 h, 0 to 100 scale (0 no effect, 100 complete control), approx. 10 d, read-out: Plant response rating, Foxtail, Giant; for pest or weed control at 125 g/ha: 125 g ai/ha; for pest or weed control at 500 g/ha: 500 g ai/ha. The essentials:
as §1

A further assay deals with wheat. Nature of the assay: Test A postemergence. It is filed as in vivo, Triticum aestivum. The conditions noted are these: Triticum aestivum, post-emergence, 240 h, 0 to 100 scale (0 no effect, 100 complete control), approx. 10 d, read-out: Plant response rating, Wheat; for plant injury at 125 g/ha: 125 g ai/ha; for plant injury at 500 g/ha: 500 g ai/ha. The essentials: as §1

A further assay deals with sedge, umbrella. Nature of the assay: Test B flooded paddy test. The conditions noted are these: Cyperus difformis, 360 h, 125 g ai/ha, applied to paddy water at 2-leaf stage, visual rating after 13 to 15 d, scale 0 (no effect) to 100 (complete control), read-out: Plant response rating, Sedge, Umbrella, Flood. It is filed as in vivo, Cyperus difformis. In a few lines: (§2)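 Pots were flooded to 3 cm above the soil at treatment, and compounds were applied directly into the paddy water. That depth was held throughout. After 13 to 15 d in a greenhouse, plants were rated visually against untreated controls.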

In a further assay the test system is ducksalad. Nature of the assay: Test B flooded paddy test. It counts as in vivo, Heteranthera limosa. To be noted: Heteranthera limosa, 360 h, 125 g ai/ha, applied to paddy water at 2-leaf stage, visual rating after 13 to 15 d, scale 0 (no effect) to 100 (complete control), read-out: Plant response rating, Ducksalad, Flood. In a few lines: as §2
Another assay has as its system blackgrass. As to the kind of experiment: Test C postemergence. It is filed as in vivo, Alopecurus myosuroides. The text has this:
(§3) Seeds of plant species selected from blackgrass (Alopecurus myosuroides), ryegrass, Italian (Italian ryegrass, Lolium multiflorum), wheat (winter wheat, Triticum aestivum), galium (catchweed bedstraw, Galium aparine), corn (Zea mays), crabgrass, large (large crabgrass, Digitaria sanguinalis), foxtail, giant, (giant foxtail, Setaria faberii), johnsongrass (Sorghum halepense), lambsquarters (Chenopodium album), morningglory (Ipomoea coccinea), nutsedge, yellow (yellow nutsedge, Cyperus esculentus), pigweed (Amaranthus retroflexus), ragweed (common ragweed, Ambrosia elatior), soybean (Glycine max), barnyardgrass (Echinochloa crus-galli), oilseed rape (Brassica napus), waterhemp (common waterhemp, Amaranthus rudis), and velvetleaf (Abutilon theophrasti) were planted into a blend of loam soil and sand and treated preemergence with test chemicals formulated in a non-phytotoxic solvent mixture which included a surfactant. At the same time, plants selected from these crop and weed species and also chickweed (common chickweed, Stellaria media), oat, wild (wild oat, Avena fatua), and kochia (Kochia scoparia), were planted in pots containing Sunshine Redi-Earth® planting medium comprising spaghnum peat moss, vermiculite, starter nutrients and dolomitic limestone and treated with postemergence applications of test chemicals formulated in the same manner. Plants ranged in height from 2 to 18 cm (1- to 4-leaf stage) for postemergence treatments. […] A dash (-) response means no test result.

The next assay relates to ryegrass, Italian. As to the kind of experiment: Test C postemergence. It is filed as in vivo, Lolium multiflorum.
Source text: as §3

A further assay relates to galium. As to the kind of experiment: Test C postemergence. It counts as in vivo, Galium aparine.
Source text: as §3

The subject of a further assay is corn. Nature of the assay: Test C postemergence. It is filed as in vivo, Zea mays.
Source text: as §3

The subject of the next assay is soybean. Nature of the assay: Test C postemergence. It is filed as in vivo, Glycine max.
Source text: as §3

The test system of assay [2] is barnyardgrass. As to the kind of experiment: Test C postemergence. It counts as in vivo, Echinochloa crus-galli.
Source text: as §3

The next assay concerns waterhemp. Nature of the assay: Test C postemergence. It counts as in vivo, Amaranthus rudis.
Source text: as §3

The test system of a further assay is buckwheat, wild. As to the kind of experiment: Test D preemergence. To be noted: for Plant response rating: Buckwheat, Wild: scale 0 to 100. It counts as in vivo, Polygonum convolvulus. The text has this: Seeds of plant species selected from bluegrass (annual bluegrass, Poa annua), blackgrass (Alopecurus myosuroides), canarygrass (Phalaris minor), chickweed (common chickweed, Stellaria media), galium (catchweed bedstraw, Galium aparine), bromegrass, down (downy bromegrass, Bromus tectorum), Russian thistle (Salsola kali), field poppy (Papaver rhoeas), field violet (Viola arvensis), foxtail, green (green foxtail, Setaria viridis), deadnettle (henbit deadnettle, Lamium amplexicaule), ryegrass, Ital. (Italian ryegrass, Lolium multiflorum), kochia (Kochia scoparia), lambsquarters (Chenopodium album), oilseed rape (Brassica napus), pigweed (Amaranthus retroflexus), chamomile (scentless chamomile, Matricaria inodora), speedwell (bird's-eye speedwell, Veronica persica), barley, spring (spring barley, Hordeum vulgare), wheat, spring (spring wheat, Triticum aestivum), buckwheat, wild (wild buckwheat, Polygonum convolvulus), wild mustard (Sinapis arvensis), oat, wild (wild oat, Avena fatua), radish, wild (wild radish, Raphanus raphanistrum), […]), barley, winter (winter barley, Hordeum vulgare), and wheat, winter (winter wheat, Triticum aestivum) were planted into a silt loam soil and treated preemergence with test chemicals formulated in a non-phytotoxic solvent mixture which included a surfactant. At the same time, these species were planted in pots containing Sunshine Redi-Earth® planting medium comprising spaghnum peat moss, vermiculite, starter nutrients and dolomitic limestone and treated with postemergence applications of the test chemicals formulated in the same manner. Plants ranged in height from 2 to 18 cm (1- to 4-leaf stage). Treated plants and controls were maintained in a controlled growth environment for 14 to 21 d after which time all species were compared to controls and visually evaluated. […] A dash (-) response means no test result.

For the molecule `Cn1nc(-c2ccc(F)cc2)nc1Oc1cccc(C(F)(F)F)c1` [Compound 5, 3-(4-fluorophenyl)-1-methyl-5-[3-(trifluoromethyl)phenoxy]-1H-1,2,4-triazole], in the assay with barnyardgrass [1], the pest or weed control at 125 g/ha is 0% and the pest or weed control at 500 g/ha was found to be 20%. Also, in the assay on pigweed, the pest or weed control at 125 g/ha turned out to be 40% and the pest or weed control at 500 g/ha came out at 50%. Also, in the assay on foxtail, giant, the pest or weed control at 125 g/ha was 20% and the pest or weed control at 500 g/ha stood at 70%. In the assay with wheat, the plant injury at 125 g/ha was 0% and the plant injury at 500 g/ha was 10%.
In the case of `Cn1nc(-c2ccc(F)cc2)nc1C(O)c1ccnc(C(F)(F)F)c1` (stereo not drawn) [Compound 14, α-[3-(4-fluorophenyl)-1-methyl-1H-1,2,4-triazol-5-yl]-2-(trifluoromethyl)-4-pyridinemethanol], the pest or weed control at 125 g/ha in the assay on barnyardgrass [1] turned out to be 0%; in the assay on pigweed it was 90%; in the assay with foxtail, giant, 20%; in the assay on sedge, umbrella, 0%; with ducksalad, 0%. Further, the pest or weed control at 500 g/ha stood at 10% in the assay on barnyardgrass [1]; 100% in the assay with pigweed; 30% in the assay with foxtail, giant. The plant injury at 125 g/ha with wheat was found to be 10%. In addition, in the assay on wheat, the plant injury at 500 g/ha came to 30%.
Consider `CCn1nc(-c2ccc(F)cc2)nc1C(O)c1ccnc(C(F)(F)F)c1` (stereo not drawn) [Compound 15, α-[1-Ethyl-3-(4-fluorophenyl)-1H-1,2,4-triazol-5-yl]-2-(trifluoromethyl)-4-pyridinemethanol], for which the pest or weed control at 125 g/ha turned out to be 0% with barnyardgrass [1]; 0% in the assay with pigweed; 0% in the assay on foxtail, giant; 0% in the assay on sedge, umbrella; 0% in the assay with ducksalad. Moreover, the pest or weed control at 500 g/ha with barnyardgrass [1] came out at 0%; with pigweed, 0%; with foxtail, giant, 10%. In addition, in the assay with wheat, the plant injury at 125 g/ha turned out to be 0%. Besides, the plant injury at 500 g/ha in the assay on wheat worked out at 0%.
With `CCOc1nc(-c2ccc(C(F)(F)F)cc2)nn1Cc1ccnc(C(F)(F)F)c1` [Compound 35, 4-[[5-ethoxy-3-[4-(trifluoromethyl)phenyl]-1H-1,2,4-triazole-1-yl]methyl]-2-(trifluoromethyl)pyridine], the pest or weed control at 31 g/ha with barnyardgrass [1] (31 g ai/ha) was 80%; with pigweed (31 g ai/ha), 100%; in the assay on foxtail, giant (31 g ai/ha), 80%. Besides, the pest or weed control at 125 g/ha turned out to be 100% in the assay with barnyardgrass [1]; 100% in the assay with pigweed; 90% in the assay on foxtail, giant. Further, in the assay with wheat (31 g ai/ha), the plant injury at 31 g/ha was 40%. The plant injury at 125 g/ha in the assay with wheat is 70%. The “Plant response rating (scale of 0 to 100 where 0 is no effect and 100 is complete control)” value in the assay with blackgrass (31 g ai/ha) turned out to be 65; in the assay on blackgrass (62 g ai/ha), 70; in the assay on blackgrass (125 g ai/ha), 85; with blackgrass (250 g ai/ha), 85; with ryegrass, Italian (31 g ai/ha) it was 30; in the assay on ryegrass, Italian (62 g ai/ha) it was 55. The “Plant response rating (scale of 0 to 100 where 0 is no effect and 100 is complete control)” value stood at 60 with ryegrass, Italian (125 g ai/ha); 80 with ryegrass, Italian (250 g ai/ha); 80 in the assay with galium (31 g ai/ha); 80 with galium (62 g ai/ha); 90 in the assay with galium (125 g ai/ha); 90 in the assay with galium (250 g ai/ha). The “Plant response rating (scale of 0 to 100 where 0 is no effect and 100 is complete control)” value in the assay on corn (31 g ai/ha) was found to be 25; with corn (62 g ai/ha), 20; in the assay with corn (125 g ai/ha) it was 25; with corn (250 g ai/ha), 50; in the assay with soybean (31 g ai/ha) it was 55; in the assay with soybean (62 g ai/ha), 65. Further, the “Plant response rating (scale of 0 to 100 where 0 is no effect and 100 is complete control)” value with soybean (125 g ai/ha) is 65; in the assay on soybean (250 g ai/ha), 70; in the assay with barnyardgrass [2] (31 g ai/ha) it was 30; in the assay on barnyardgrass [2] (62 g ai/ha), 45; in the assay with barnyardgrass [2] (125 g ai/ha), 60; with barnyardgrass [2] (250 g ai/ha) it was 85. The “Plant response rating (scale of 0 to 100 where 0 is no effect and 100 is complete control)” value is on record as 98 with waterhemp (31 g ai/ha), 98 in the assay with waterhemp (62 g ai/ha), 95 with waterhemp (125 g ai/ha) and 98 in the assay with waterhemp (250 g ai/ha). Besides, in the assay on buckwheat, wild (16 g ai/ha, 0 is no effect, 100 is complete control), the “Plant response rating (0 to 100), Buckwheat, Wild” value was determined as 65. Moreover, the “Plant response rating: Buckwheat, Wild” value in the assay on buckwheat, wild (31 g ai/ha) is 70; with buckwheat, wild (62 g ai/ha), 70; with buckwheat, wild (125 g ai/ha) it was 95.
